{"source": "patent US20260242440A1", "about": "“NOVEL MEANS TO MODULATE NMDA RECEPTOR-MEDIATED TOXICITY” (FUNDAMENTAL PHARMA GMBH, priority 2018, published 2026)", "system": "retinal ganglion cells (RGCs)", "assay": "NMDA-induced degeneration of retinal ganglion cells (RGCs) in mice", "format": "in vivo, mouse", "conditions": "40 mg/kg i.p. at -16h, -3h, 0 h, +24 h, intravitreal NMDA 20 nmol, 7 days", "description": "The inventors also assessed, whether compound P4 can protect retinal ganglion cells against NMDA-induced degeneration. For this purpose, 28 C57BL/6J mice (25±3.5 g) were randomly allocated to two groups. All mice received vehicle (sunflower oil containing 5% ethanol) or P4 (40 mg/kg, dissolved in sunflower oil containing 5% ethanol) through intraperitoneal injection at −16h, −3h, 0 h, +3 h and +24 h in a volume of 50 μL each injection. At 0 h, mice received 20 nmol of NMDA (total volume 2.0 μL) by intravitreal injection in the left eye and saline (total volume 2.0 μL) in the right eye. Both eyes were removed from euthanized mice 7 days after intravitreal injections and fixed in formalin for 15 min before retinas were dissected and processed for whole mount immunostaining. Retinas were incubated in blocking solution (10% FBS, 1% Triton-X 100 in PBS) for 6 h, followed by 24 h incubation with anti-Brn3a antibody in blocking solution at 4° C. Retinas were washed 3 times with PBS and incubated with Donkey anti-rabbit Alexa Fluor-594 for 24 h at room temperature. Retinas were washed again, cut and mounted onto slides. […] Brn3a-positive cells were identified and counted with a macro in Cellprofiler. […]"}
{"smiles": "CCN(CCN)Cc1cccc(Br)c1", "note": "[P4]", "values": [{"measurement": "retinal ganglion cell (RGC) degeneration (Brn3a-positive cells)", "value": "reduces retinal ganglion cell (RGC) degeneration"}]}
